pIC50: −log10 of the molar value.

For ten compounds, inhibition and IC50 results are on record in ChEMBL document CHEMBL3868599, “Strategy for designing selective α-l-rhamnosidase inhibitors: Synthesis and biological evaluation of l-DMDP cyclic isothioureas” (Bioorg Med Chem, 2017).

Assay [1] deals with Penicillium decumbens. In words: Inhibition of Penicillium decumbens alpha-L-rhamnosidase at 100 uM using p-nitrophenyl-glycoside as substrate by spectrophotometric method.
For assay [2], the system named is Prunus dulcis. As to the kind of experiment: Inhibition of almond beta-glucosidase at 100 uM using p-nitrophenyl-glycoside as substrate by spectrophotometric method.
Assay [3] can be described thus: Inhibition of bovine liver beta-glucosidase using p-nitrophenyl-glycoside as substrate by spectrophotometric method. The arrangement: species or system Bos taurus.
The nature of assay [4]: Inhibition of human lysosomal beta-glucosidase using 4-methylumbelliferyl-beta-D-glucopyranoside as substrate preincubated for 45 mins followed by substrate addition measured after 30 mins by fluorescence spectrophotometric method.
For assay [5], the system named is Oryza sativa. In words: Inhibition of rice alpha-glucosidase at 100 uM using p-nitrophenyl-glycoside as substrate by spectrophotometric method.
The species entered for assay [6] is Rattus norvegicus. As to the kind of experiment: Inhibition of rat intestinal maltase assessed as D-glucose level at 100 uM using maltose as substrate measured after 10 to 30 mins.
A further assay concerns the target T1, Beta-galactosidase (Bos taurus, UniProt Q58D55).
T1 sequence (Q58D55 whole entry): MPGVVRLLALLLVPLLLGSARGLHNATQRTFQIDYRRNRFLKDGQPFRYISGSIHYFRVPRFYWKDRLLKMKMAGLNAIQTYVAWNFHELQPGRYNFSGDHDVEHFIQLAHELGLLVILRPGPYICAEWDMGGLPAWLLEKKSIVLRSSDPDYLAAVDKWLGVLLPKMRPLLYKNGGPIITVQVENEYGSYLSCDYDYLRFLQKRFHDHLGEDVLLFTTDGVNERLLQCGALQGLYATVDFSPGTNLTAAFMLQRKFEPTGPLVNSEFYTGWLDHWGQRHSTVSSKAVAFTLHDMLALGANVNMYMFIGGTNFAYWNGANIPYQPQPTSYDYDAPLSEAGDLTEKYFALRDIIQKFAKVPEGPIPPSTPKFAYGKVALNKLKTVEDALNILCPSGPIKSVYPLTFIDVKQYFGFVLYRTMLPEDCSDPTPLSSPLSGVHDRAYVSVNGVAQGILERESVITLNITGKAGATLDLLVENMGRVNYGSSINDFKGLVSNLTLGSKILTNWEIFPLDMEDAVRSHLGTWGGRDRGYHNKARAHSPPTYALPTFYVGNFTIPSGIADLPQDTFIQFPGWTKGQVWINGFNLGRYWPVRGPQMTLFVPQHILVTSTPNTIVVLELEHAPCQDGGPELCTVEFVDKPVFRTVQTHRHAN
As to the kind of experiment: Inhibition of bovine liver beta-galactosidase using p-nitrophenyl-glycoside as substrate by spectrophotometric method.

The test system of assay [7] is Aspergillus niger. In words: Inhibition of Aspergillus niger amyloglucosidase assessed as D-glucose level at 100 uM using maltose as substrate measured after 10 to 30 mins.
The target of assay [8] is T2, Tissue alpha-L-fucosidase (Bos taurus) (UniProt Q2KIM0).
T2 sequence (whole entry): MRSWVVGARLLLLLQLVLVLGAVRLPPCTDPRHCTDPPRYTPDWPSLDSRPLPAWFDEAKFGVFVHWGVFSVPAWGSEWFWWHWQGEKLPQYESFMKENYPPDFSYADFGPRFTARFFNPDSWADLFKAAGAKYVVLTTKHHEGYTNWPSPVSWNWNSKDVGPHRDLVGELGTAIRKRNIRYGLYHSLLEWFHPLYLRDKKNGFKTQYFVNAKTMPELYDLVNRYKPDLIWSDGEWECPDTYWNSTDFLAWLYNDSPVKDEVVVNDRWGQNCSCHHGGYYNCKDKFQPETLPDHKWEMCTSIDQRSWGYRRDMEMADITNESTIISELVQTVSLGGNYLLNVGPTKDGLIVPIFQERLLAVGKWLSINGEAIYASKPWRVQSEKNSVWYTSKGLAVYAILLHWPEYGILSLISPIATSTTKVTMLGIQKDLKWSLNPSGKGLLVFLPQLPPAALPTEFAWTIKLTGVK
As to the kind of experiment: Inhibition of bovine kidney alpha-L-fucosidase at 100 uM using p-nitrophenyl-glycoside as substrate by spectrophotometric method.

For assay [9], the target named is T3, Uncharacterized protein (Sus scrofa) (UniProt I3LIR5).
T3 sequence (whole entry): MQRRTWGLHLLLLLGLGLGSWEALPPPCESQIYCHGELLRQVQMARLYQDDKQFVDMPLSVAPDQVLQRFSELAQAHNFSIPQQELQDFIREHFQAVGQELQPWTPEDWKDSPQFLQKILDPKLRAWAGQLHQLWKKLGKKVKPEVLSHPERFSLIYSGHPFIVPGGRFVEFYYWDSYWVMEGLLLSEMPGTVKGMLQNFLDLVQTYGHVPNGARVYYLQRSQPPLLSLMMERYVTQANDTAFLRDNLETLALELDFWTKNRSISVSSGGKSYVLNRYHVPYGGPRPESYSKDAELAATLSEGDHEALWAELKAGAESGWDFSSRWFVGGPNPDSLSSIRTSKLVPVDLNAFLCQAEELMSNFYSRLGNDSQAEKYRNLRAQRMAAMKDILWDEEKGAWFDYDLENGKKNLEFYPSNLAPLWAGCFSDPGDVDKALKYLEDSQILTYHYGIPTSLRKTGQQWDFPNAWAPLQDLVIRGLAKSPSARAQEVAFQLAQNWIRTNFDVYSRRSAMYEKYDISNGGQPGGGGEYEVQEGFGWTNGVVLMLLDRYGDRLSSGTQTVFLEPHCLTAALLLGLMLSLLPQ
In words: Inhibition of porcine kidney trehalase assessed as D-glucose level at 100 uM using maltose as substrate measured after 10 to 30 mins.

Assay [10] relates to Escherichia coli. As to the kind of experiment: Inhibition of Escherichia coli beta-glucuronidase at 100 uM using p-nitrophenyl-glycoside as substrate by spectrophotometric method.
Assay [11] in a line: Inhibition of Penicillium decumbens alpha-L-rhamnosidase using p-nitrophenyl-glycoside as substrate by spectrophotometric method.
In assay [12] the test system is Prunus dulcis. In words: Inhibition of almond beta-glucosidase at 1000 uM using p-nitrophenyl-glycoside as substrate by spectrophotometric method.
Assay [13] is filed under the species Bos taurus. In words: Inhibition of bovine liver beta-glucosidase at 1000 uM using p-nitrophenyl-glycoside as substrate by spectrophotometric method.
Assay [14] deals with Aspergillus niger. As to the kind of experiment: Inhibition of Aspergillus niger amyloglucosidase assessed as D-glucose level at 1000 uM using maltose as substrate measured after 10 to 30 mins.
For assay [15], the system named is Oryza sativa. In words: Inhibition of rice alpha-glucosidase at 1000 uM using p-nitrophenyl-glycoside as substrate by spectrophotometric method.
Assay [16] is filed under the species Rattus norvegicus. In words: Inhibition of rat intestinal maltase assessed as D-glucose level at 1000 uM using maltose as substrate measured after 10 to 30 mins.
For assay [17], the target named is T4, Beta-galactosidase (Bos taurus) (UniProt Q58D55).
T4 sequence (whole entry): T1 sequence (Q58D55 whole entry)
In words: Inhibition of bovine liver beta-galactosidase at 1000 uM using p-nitrophenyl-glycoside as substrate by spectrophotometric method.

Assay [18] deals with T2, Tissue alpha-L-fucosidase (Bos taurus). In words: Inhibition of bovine kidney alpha-L-fucosidase at 1000 uM using p-nitrophenyl-glycoside as substrate by spectrophotometric method.
Assay [19] deals with T3, Uncharacterized protein (Sus scrofa). As to the kind of experiment: Inhibition of porcine kidney trehalase assessed as D-glucose level at 1000 uM using maltose as substrate measured after 10 to 30 mins.
For assay [20], the system named is Escherichia coli. As to the kind of experiment: Inhibition of Escherichia coli beta-glucuronidase at 1000 uM using p-nitrophenyl-glycoside as substrate by spectrophotometric method.
Assay [21] concerns Penicillium decumbens. As to the kind of experiment: Inhibition of Penicillium decumbens alpha-L-rhamnosidase at 1000 uM using p-nitrophenyl-glycoside as substrate by spectrophotometric method.
Assay [22] is filed under the species Bos taurus. In words: Inhibition of bovine liver beta-glucosidase at 100 uM using p-nitrophenyl-glycoside as substrate by spectrophotometric method.
The species named for a further assay is Homo sapiens. In words: Inhibition of human lysosomal beta-glucosidase at 100 uM using 4-methylumbelliferyl-beta-D-glucopyranoside as substrate preincubated for 45 mins followed by substrate addition measured after 30 mins by fluorescence spectrophotometric method.
Assay [23] has as its target T4, Beta-galactosidase (Bos taurus). As to the kind of experiment: Inhibition of bovine liver beta-galactosidase at 100 uM using p-nitrophenyl-glycoside as substrate by spectrophotometric method.

For orientation: inhibition means the change of the read-out against control, counted positive when it falls. The term pIC50 denotes −log10 of the IC50, conventionally taken in molar units. Turning to `CCCCCCCCCCCCNC(=S)N1[C@@H](CO)[C@H](O)[C@@H](O)[C@@H]1CO`, the inhibition (in the assay on Penicillium decumbens [1]; with Prunus dulcis [2]; in the assay with Oryza sativa [5]; in the assay filed under Rattus norvegicus [6]; in the assay with Aspergillus niger [7]; in [8]) was less than 50% in each case. Also, the inhibition (in assay [9]; in the assay with Escherichia coli [10]) was less than 50% throughout. The results for the negative logarithm of the IC50 (pIC50) (in assay [3]; in [4]; against Beta-galactosidase) were 4.44, 4.14 and 4.52, respectively.
For the compound `CCCCCC/N=C1/SC[C@@H]2[C@@H](O)[C@H](O)[C@@H](CO)N12`, the negative-log IC50 (pIC50) in [11] was 3.31; in assay [4], 4.80. In addition, the inhibition (with Prunus dulcis [12]; in the assay listed under Bos taurus [13]; in the assay with Aspergillus niger [14]; with Oryza sativa [15]; in the assay filed under Rattus norvegicus [16]; in assay [17]) was less than 50% throughout. For the same compound, the inhibition (in assay [18]; in assay [19]; in the assay with Escherichia coli [20]) was less than 50% throughout.
Consider `CCCC/N=C1/SC[C@@H]2[C@@H](O)[C@H](O)[C@@H](CO)N12`, for which the inhibition in the assay on Penicillium decumbens [21], in the assay with Prunus dulcis [12], in the assay filed under Bos taurus [13], with Aspergillus niger [14], in the assay on Oryza sativa [15] and in the assay filed under Rattus norvegicus [16] was less than 50% in each case. The inhibition (in [17]; in assay [18]; in assay [19]; in the assay on Escherichia coli [20]) was less than 50% each time. In assay [4], this compound showed a pIC50 of 3.27.
As for `CCCCCCCCCC/N=C1/SC[C@@H]2[C@@H](O)[C@H](O)[C@@H](CO)N12`, the inhibition (in the assay with Penicillium decumbens [1]; in the assay on Prunus dulcis [2]; with Oryza sativa [5]; in the assay listed under Rattus norvegicus [6]; in the assay on Aspergillus niger [7]; in assay [8]) was less than 50% in each case. In addition, the inhibition (in assay [9]; with Escherichia coli [10]) was less than 50% in each case. The figures for the pIC50 (in assay [3]; in assay [4]; against Beta-galactosidase) were 4.20, 6.00 and 4.03, respectively.
For the compound `CCCCCCCCCCNC(=S)N1[C@H](CO)[C@@H](O)[C@H](O)[C@H]1CO`, the inhibition in the assay on Penicillium decumbens [1], in the assay on Prunus dulcis [2], in the assay filed under Bos taurus [22], in the assay with Oryza sativa [5], in the assay listed under Rattus norvegicus [6] and in the assay with Aspergillus niger [7] was less than 50% each time. The inhibition (in assay [8]; in assay [9]; in the assay on Escherichia coli [10]) was less than 50% throughout. Besides, the values for the pIC50 (in [4]; against Beta-galactosidase) were 6.13 and 4.00, respectively.
For the compound `CCCCCCCCCCCCNC(=S)N1[C@H](CO)[C@@H](O)[C@H](O)[C@H]1CO`, the inhibition (in the assay with Penicillium decumbens [1]; in the assay on Prunus dulcis [2]; with Oryza sativa [5]; in the assay listed under Rattus norvegicus [6]; with Aspergillus niger [7]; in assay [8]) was less than 50% in each case. Besides, the inhibition (in [9]; in the assay on Escherichia coli [10]) was less than 50% each time. The figures for the pIC50 (in assay [3]; in [4]; at Beta-galactosidase) were 4.64, 6.80 and 4.62, respectively.
For `CCCCCCCCCCNC(=S)N1[C@@H](CO)[C@H](O)[C@@H](O)[C@@H]1CO`, the inhibition (with Penicillium decumbens [1]; with Prunus dulcis [2]; in the assay with Oryza sativa [5]; in the assay filed under Rattus norvegicus [6]; with Aspergillus niger [7]; in [8]) was less than 50% in each case. Besides, the inhibition (in assay [9]; in the assay on Escherichia coli [10]) was less than 50% throughout. The pIC50 in assay [3] was 4.80; in assay [4], 4.19; against Beta-galactosidase, 4.21.
`OC[C@H]1[C@H](O)[C@@H](O)[C@@H]2CS/C(=N/CCCc3ccccc3)N12` had a pIC50 in [11] of 5.17. Further, the inhibition (with Prunus dulcis [2]; in the assay listed under Bos taurus [22]; in the assay on Oryza sativa [5]; in the assay listed under Rattus norvegicus [6]; in the assay on Aspergillus niger [7]; in [8]) was less than 50% each time. Besides, the inhibition (in assay [9]; in the assay filed under Homo sapiens; in the assay on Escherichia coli [10]; in [23]) was less than 50% in each case.
In assay [11], `OC[C@H]1[C@H](O)[C@@H](O)[C@@H]2CS/C(=N/CCCCCCCc3ccccc3)N12` gave a negative logarithm of the IC50 (pIC50) of 6.00. Moreover, the inhibition (in the assay with Prunus dulcis [2]; in the assay filed under Bos taurus [22]; in the assay with Oryza sativa [5]; in the assay listed under Rattus norvegicus [6]; in the assay with Aspergillus niger [7]; in assay [8]) was less than 50% each time. Moreover, the inhibition (in [9]; in the assay listed under Homo sapiens; in the assay on Escherichia coli [10]; in assay [23]) was less than 50% each time.
On to `OC[C@H]1[C@H](O)[C@@H](O)[C@@H]2CS/C(=N/Cc3ccccc3)N12`, for which, in assay [11], the pIC50 is 5.66. In addition, the inhibition (in the assay with Prunus dulcis [2]; in the assay listed under Bos taurus [22]; in the assay with Oryza sativa [5]; in the assay filed under Rattus norvegicus [6]; in the assay on Aspergillus niger [7]; in [8]) was less than 50% throughout. For the same compound, the inhibition (in [9]; in the assay listed under Homo sapiens; with Escherichia coli [10]; in [23]) was less than 50% in each case.
